# Assay results taken from US9487479B2, “Small molecule inhibitors of N-terminus activation of the androgen receptor” (The University of British Columbia, priority 2008, dated 2016).
# System: PSA mRNA
# Test: Androgen-induced PSA mRNA levels in LNCaP cells (qRT-PCR)
# Type: cell-based, human
# Details: 10 μg/ml, 1 hour pretreatment, R1881 1 nM, 16 hours
# Protocol: Levels of PSA mRNA were measured by quantitative real-time (qRT)-PCR and normalized to levels of GAPDH mRNA (housekeeping gene). White bar: no R1881. Black bars: R1881 (1 nM). MNE: mean normalized expression. DMSO (no R1881) was arbitrarily set at 1.0 for each individual experiment. Bars represent the mean±SE from 3 separate experiments using triplicate technical samples from each experiment.
# PSA is an androgen-regulated gene containing several well-characterized androgen response elements (AREs) in the enhancer and promoter regions. Levels of PSA mRNA are induced by androgen by a mechanism dependent androgen receptor. To test if sintokamides would also block endogenous gene expression induced by androgen, levels of PSA mRNA were measured in response to the synthetic androgen R1881.
structure (smiles),measurement,value
"CCC(=O)N[C@H](C[C@H](C)C(Cl)(Cl)Cl)C(=O)N1C(=O)C=C(OC)[C@@H]1C[C@H](C)C(Cl)Cl [CB3.1, Sintokamide A]",inhibition of androgen-induced levels of PSA mRNA,inhibit
